Source: PubChem BioAssay AID1963858 (Molecular Pharmacology Branch, DTP, NCI, 2024)

System: HOP-62 multicell spheroids with HUVEC/MSC, viability
Experiment: Anticancer human tumor HOP-62 cell line growth inhibition [KRAS2];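 also: viability read after a week of compound exposure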;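 as to viability, T/C: 100% = DMSO vehicle-treated spheroids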
Details: for IC50: curve of first compound; for viability, T/C: stronger effect = lower value
Procedure, shortened: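 KRAS-mutant tumor cells were grown as spheroids with HUVEC endothelial cells and human MSCs as stroma. Targeted agents were tested alone and with KRAS pathway inhibitors. Doses started at or near clinical Cmax, or 10 microM, descending half-log.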

[1] = second compound 0.0316 µM, first compound 0.0316 µM
[2] = second compound 0.0316 µM, first compound 0.1 µM
[3] = second compound 0.0316 µM, first compound 0.316 µM
[4] = second compound 0.0316 µM, first compound 1 µM
[5] = second compound 0.0316 µM, first compound 3.16 µM
[6] = second compound 0.0316 µM, first compound 10 µM
[7] = second compound 0.1 µM, first compound 0.0316 µM
[8] = second compound 0.1 µM, first compound 0.1 µM
[9] = second compound 0.1 µM, first compound 0.316 µM
[10] = second compound 0.1 µM, first compound 1 µM
[11] = second compound 0.1 µM, first compound 3.16 µM
[12] = second compound 0.1 µM, first compound 10 µM
[13] = second compound 0.316 µM, first compound 0.0316 µM
[14] = second compound 0.316 µM, first compound 0.1 µM
[15] = second compound 0.316 µM, first compound 0.316 µM
[16] = second compound 0.316 µM, first compound 1 µM
[17] = second compound 0.316 µM, first compound 3.16 µM
[18] = second compound 0.316 µM, first compound 10 µM
[19] = second compound 1 µM, first compound 0.0316 µM
[20] = second compound 1 µM, first compound 0.1 µM
[21] = second compound 1 µM, first compound 0.316 µM
[22] = second compound 1 µM, first compound 1 µM
[23] = second compound 1 µM, first compound 3.16 µM
[24] = second compound 1 µM, first compound 10 µM
[25] = second compound 3.16 µM, first compound 0.0316 µM
[26] = second compound 3.16 µM, first compound 0.1 µM
[27] = second compound 3.16 µM, first compound 0.316 µM
[28] = second compound 3.16 µM, first compound 1 µM
[29] = second compound 3.16 µM, first compound 3.16 µM
[30] = second compound 3.16 µM, first compound 10 µM

| SMILES | IC50 (second compound 0.1 µM) [nM] | IC50 (second compound 0.316 µM) [nM] | IC50 (second compound 1 µM) [nM] | IC50 (second compound 3.16 µM) [nM] | viability, T/C [7] [%] | viability, T/C [8] [%] | viability, T/C [9] [%] | viability, T/C [10] [%] | viability, T/C [11] [%] | viability, T/C [13] [%] | viability, T/C [14] [%] | viability, T/C [15] [%] | viability, T/C [16] [%] | viability, T/C [17] [%] | viability, T/C [19] [%] | viability, T/C [20] [%] | viability, T/C [21] [%] | viability, T/C [22] [%] | viability, T/C [23] [%] | viability, T/C [25] [%] | also measured |
| --- | --- | --- | --- | --- | --- | --- | --- | --- | --- | --- | --- | --- | --- | --- | --- | --- | --- | --- | --- | --- | --- |
| CC1OCC2(CCN(c3cnc(Sc4ccnc(N)c4Cl)c(N)n3)CC2)C1N (stereo not given) + C=CC(=O)N1CCN(c2nc(OCC3CCCN3C)nc3c2CCN(c2cccc4cccc(C)c24)C3)CC1CC#N | 36.8 | < 31.6 | < 31.6 | < 31.6 | 53.5 | 29.1 | 19.9 | 12.8 | 11.5 | 40 | 30.7 | 13.9 | 10.5 | 10.2 | 24 | 16 | 11.8 | 8.98 | 7.63 | 4.76 | IC50 (second compound 0.0316 µM): 69.7 nM; viability, T/C [1]: 54.3%; viability, T/C [2]: 49.1%; viability, T/C [3]: 27%; viability, T/C [4]: 19.5%; viability, T/C [5]: 11.9%; viability, T/C [6]: 12.7%; viability, T/C [12]: 12.2%; viability, T/C [18]: 10.6%; viability, T/C [24]: 7.61%; viability, T/C [26]: 1.76%; viability, T/C [27]: 1.12%; viability, T/C [28]: 0.88%; viability, T/C [29]: 0.72%; viability, T/C [30]: 0.51% |
| Cn1nccc1Nc1nccc(-c2cc3c(s2)C(C)(C)N(CCN2CCOCC2)C3=O)n1 + C=CC(=O)N1CCN(c2nc(OCC3CCCN3C)nc3c2CCN(c2cccc4cccc(C)c24)C3)CC1CC#N | 144 | < 31.6 | < 31.6 | < 31.6 | 58.2 | 53 | 39.3 | 17.1 | 17.2 | 45.3 | 39.2 | 18.1 | 18 | 13.6 | 27.7 | 30.3 | 13.1 | 12.3 | 11.3 | 2.34 | IC50 (second compound 0.0316 µM): 265 nM; viability, T/C [1]: 84.1%; viability, T/C [2]: 68%; viability, T/C [3]: 50.4%; viability, T/C [4]: 20.3%; viability, T/C [5]: 22.4%; viability, T/C [6]: 22.7%; viability, T/C [12]: 17%; viability, T/C [18]: 16%; viability, T/C [24]: 12.6%; viability, T/C [26]: 0.65%; viability, T/C [27]: 1.84%; viability, T/C [28]: 4.87%; viability, T/C [29]: 4.21%; viability, T/C [30]: 0.35% |
| CC(=O)OC12COC1CC(O)C1(C)C(=O)C(O)C3=C(C)C(OC(=O)C(O)C(NC(=O)OC(C)(C)C)c4ccccc4)CC(O)(C(OC(=O)c4ccccc4)C21)C3(C)C (stereo not given) + CC1OCC2(CCN(c3cnc(Sc4ccnc(N)c4Cl)c(N)n3)CC2)C1N | < 10 | < 10 | < 10 | < 10 | 34.9 | 35.6 | 37.6 | 38.2 | 40.1 | 33 | 31.2 | 29.8 | 33.1 | 36.4 | 33.8 | 32.7 | 34.5 | 34.8 | 45 | 22.3 | IC50 (second compound 10 µM): < 10 nM; viability, T/C (second compound 0.1 µM, first compound 0.01 µM): 35.9%; viability, T/C (second compound 0.316 µM, first compound 0.01 µM): 31.2%; viability, T/C (second compound 1 µM, first compound 0.01 µM): 37.5%; viability, T/C (second compound 3.16 µM, first compound 0.01 µM): 25.5%; viability, T/C [26]: 39.3%; viability, T/C [27]: 25.5%; viability, T/C [28]: 25.6%; viability, T/C [29]: 26.9%; viability, T/C (second compound 10 µM, first compound 0.01 µM): 23%; viability, T/C (second compound 10 µM, first compound 0.0316 µM): 18.8%; viability, T/C (second compound 10 µM, first compound 0.1 µM): 35.4%; viability, T/C (second compound 10 µM, first compound 0.316 µM): 23.5%; viability, T/C (second compound 10 µM, first compound 1 µM): 25.7%; viability, T/C (second compound 10 µM, first compound 3.16 µM): 29.4% |
